Three molecules from patent US11186552B2, “Tebuconazole polymorph and preparation method therefor” (East China University of Science and Technology, priority 2017, dated 2021) can be followed below.

The structures appear in SMILES notation. Values after ≈ are worked out from the molar mass of the structure shown.

The nature of data set [1]: Solubility in ethanol by high performance liquid chromatography. The protocol: Excess crystal form 1 and crystal form 2 were weighed and suspended in ethanol, shaken for 12 h, and high performance liquid chromatography was used to test the solubility.
Data set [2] in a line: Light stability of crystal form (XRPD test). The following applies: 4500±500 lux light intensity, 5 days and 10 days. Format: physicochemical. As for the experimental part:
(§1) XRD (X-ray powder diffraction) method: instrument model: Rigaku Ultima IV; target: Cu-Kα (40 kV, 40 mA); using a D/tex Ultra detector at room temperature. The scanning range is from 3° to 45 in the 2θ interval, and the scanning speed is 20°/minute.

Data set [3] in a line: High temperature stability of crystal form (XRPD test). Format: physicochemical. To be noted: oven at 60±2° C., 5 and 10 days. As for the experimental part:
XRD (X-ray powder diffraction) method: instrument model: Rigaku Ultima IV; target: Cu-Kα (40 kV, 40 mA); using a D/tex Ultra detector at room temperature. The scanning range is from 3° to 45 in the 2θ interval, and the scanning speed is 20°/minute. […] After 5 and 10 days, the sample was taken out for XRPD test to investigate the crystalline stability of the sample to temperature.

Data set [4] is described as follows: High humidity stability of crystal form (XRPD test). Format: physicochemical. To be noted: 90±5% humidity, 5 days and 10 days. As for the experimental part:
as §1

For data set [5], the system named is wheat white powder. In words: Live spray protection of plants, prevention and control effect. Format: in vivo. An excerpt:
The water-dispersible granules preparations with 50% of crystal form 1 and crystal form 2 were formulated into solutions, respectively, and the plants were protected by live spray. Crystal form 2 has better prevention and control effect.

Usually solubility stands for how much of the substance goes into solution per volume. Regarding `CC(C)(C)C(O)(CCc1ccc(Cl)cc1)Cn1cncn1` (racemic) [crystal form 1, (RS)-1-(4-chlorophenyl)-4,4-dimethyl-3-(1H-1,2,4-triazol-1-ylmethyl) pentan-3-ol], the solubility at 12 h in data set [1] (organic solvent or mixture, thermodynamic from solid, Solubility, excess solid suspended in ethanol, shaken for 12 h, HPLC) came to 92.1 mg/mL (≈ 299 mM).

As usually defined, the Solubility is how much of the substance goes into solution per volume. Read a high Solubility as much dissolved substance. For the molecule `CC(C)(C)C(O)(CCc1ccc(Cl)cc1)Cn1cncn1` (racemic) [crystal form 2, (RS)-1-(4-chlorophenyl)-4,4-dimethyl-3-(1H-1,2,4-triazol-1-ylmethyl) pentan-3-ol], in data set [1] (ethanol, crystal form 2 versus crystal form 1), the “solubility in ethanol relative to crystal form 1” value is listed as “about 1.7 times”. This molecule also came in with a Solubility in data set [1] (excess solid suspended in ethanol, shaken for 12 h, HPLC) of 156.2 mg/mL (≈ 507 mM). For the same molecule, the “crystal form stability of the sample to light” value in data set [2] is recorded as “stable”. In addition, the “crystalline stability of the sample to temperature” value in data set [3] was “stable”. The “crystalline stability of the samples to humidity” value in data set [4] was “stable”.

For the molecule `CC(C)(C)C(O)(CCc1ccc(Cl)cc1)Cn1cncn1` (racemic) [96% tebuconazole TC, (RS)-1-(4-chlorophenyl)-4,4-dimethyl-3-(1H-1,2,4-triazol-1-ylmethyl) pentan-3-ol], the “prevention and control effect” value in data set [5] (concentration 0.15625 mg/L) is 0%; in data set [5] (concentration 0.625 mg/L), 30%; in data set [5] (concentration 2.5 mg/L), 50%; in data set [5] (concentration 10 mg/L) it was 100%.
